According to US9615503B2, “Method for cultivating sugar cane” (BASF SE, priority 2011, dated 2017):

Test system: sugar cane bud discs
Assay: Survival of sugar cane seedlings grown from treated bud discs (greenhouse, then acclimatization)
Type: in vivo
Settings: for Number of surviving seedlings: of 648 planted buds per treatment, bud discs immersed 10 seconds in aqueous solution (pyraclostrobin 1 g/l, fipronil 0.8 g/l, fluxapyroxade 1.2 g/l, thiamethoxam 1.5 g/l), counted after 30 to 45 days greenhouse plus 15 days acclimatization, untreated 211; for Increase of survival rate [%]: relative to untreated buds (211 of 648 surviving), same treatment and concentrations as the number of surviving seedlings
Excerpt: On an area of 0.1 hectares where sugar cane plants were growing with a distance between the rows of 1.5 m, the top part of the 8 months old sugar cane plants was removed by chopping off with a machete in a height of approximately 2 to 2.5 m. The removed top part was discarded. The below, remaining stalks were removed from the field by cutting them off closely above the ground. The stalks were then cut longitudinally into halves in such a manner that the buds were approximately centralized on the halves. From the stalk halves discs of ca. 2 cm of diameter each containing a bud and a part of the respective node were punched off with a punching machine. For each treatment, 648 bud discs were immersed for 10 seconds into an aqueous solution containing either pyraclostrobin (1 g/l; used as the commercial product Comet® of a concentration of 250 g/l of pyraclostrobin) or fipronil (0.8 g/l; used as the commercial product Regent® of a concentration of 800 g/kg of fipronil) or fluxapyroxade (1.2 g/l; used as the commercial product BAS 700 04F of a concentration of 300 g/l) or thiamethoxam (1.5 g/l; used as the commercial product Actara® 250 WG of a concentration of […]). The treated buds were then each placed in individual pots filled with humid coconut fibers. 648 bud discs stayed untreated for comparative reasons and were directly placed in individual pots filled with humid coconut fibers. The pots were placed in a greenhouse, and seedlings were grown from the planted bud discs at 25 to 35° C. and 70 to 80% humidity. While in the greenhouse, the buds/seedlings were watered sufficiently. 30 to 45 days after having been placed in the greenhouse, the surviving seedlings were transferred in an acclimatization area and kept for 15 days. Thereafter they were counted and then transplanted to a field.

Row | SMILES | Number of surviving seedlings | Increase of survival rate [%]
1 | N#Cc1nn(-c2c(Cl)cc(C(F)(F)F)cc2Cl)c(N)c1[S+]([O-])C(F)(F)F (centres unmarked) [Fipronil, fipronil] | 236 | 11.8%
2 | Cn1cc(C(=O)Nc2ccccc2-c2cc(F)c(F)c(F)c2)c(C(F)F)n1 [Fluxapyroxade, N-(3′,4′,5′-trifluorobiphenyl-2-yl)-3-difluoromethyl-1-methyl-1H-pyrazole-4-carboxamide] | 248 | 17.5%
3 | COC(=O)N(OC)c1ccccc1COc1ccn(-c2ccc(Cl)cc2)n1 [Pyraclostrobin, pyraclostrobin] | 391 | 85.3%
4 | CN1COCN(Cc2cnc(Cl)s2)/C1=N\[N+](=O)[O-] [Thiamethoxam, thiamethoxam] | 225 | 6.6%
